Entries after “also recorded” stand apart in the source; their conditions may differ. Blank lines part the entries; values can stand above or below the compound they belong to. r = 2'-OH (RNA)
Experiments:
Assay type in all cases: physicochemical
[1] = Stability of RNA on the polymer film, 20% denaturing polyacrylamide gel
Procedure: • 1. preparation “base polymer mixture” • 2. sterilization • 3. preparation of film laminates • 4. drying • 5. cutting (A=0.25 cm^2) • 6. application of RNA samples on the polymer film • 7. drying of the final samples • !points 3-7 under aseptic conditions!
Stability of RNA on the film was analyzed using a 20% denaturizing polyacrylamide (PAA) gel. The experiment was repeated with a commercially available siRNA.
Stability of RNA on the film was further analyzed before and after solubilization of the film.

[2] = Stability of antisense BMP2 RNA on the film under various application and storage conditions, 20% denaturing polyacrylamide gel; conditions: for RNA degradation after storage of the dry film: 10 days of storage of the dry film at 4° C.
Procedure: A film containing the antisense RNA for BMP2 was prepared as described in Example 2 except for using PVA 4-88 instead of PVA 18-88.
The stability of the antisense BMP2 RNA was analyzed under various application conditions as indicated in FIG. 16 and the legend of FIG. 16. 10 pmol of each probe was loaded on a 20% denaturing polyacrylamide gel. The gel was run for 3 hours at 140 volt and subsequently colored with SYBR gold for 20 minutes.
The stability of labeled antisense BMP2 RNA was analyzed in comparison to unlabeled antisense BMP2 RNA under various application conditions as indicated in FIG. 17 and the legend of FIG. 17. In lanes 1 to […], 5 pmol of the probe, in lanes 4 to 6, 10 pmol of each probe were loaded on a 20% denaturing polyacrylamide gel. The gel was run for 3 hours at 140 volt and subsequently colored with ethidium bromide for 30 minutes (FIG. 17a) or excited with light of a wavelength of 630 nm and emission was measured at 675 nm (FIG. 17b). The bands of labeled BMP2 RNA in FIG. 17b correspond to the band of the unlabeled BMP2 RNA in FIG. 17a Since the unlabeled BMP2 RNA has no fluorescent marker, the bands of unlabeled BMP2 RNA are not visible in FIG. 17b.
The stability of labeled antisense BMP2 RNA was analyzed in comparison to unlabeled antisense BMP2 RNA after storage of the dry film for 10 days at 4° C. Probes were loaded on a 20% denaturing polyacrylamide gel. The gel was run for 3 hours at 140 volt and subsequently colored with ethidium bromide for 30 minutes (FIG. 18b) or excited with light of a wavelength of 630 nm and emission was measured at 675 nm (FIG. 18a). The bands of labeled BMP2 RNA in FIG. 18a correspond to the band of the unlabeled BMP2 RNA in FIG. 18b.

[3] = HPLC analysis of paclitaxel content of the coated polymer film; conditions: API-loaded film sample compared with calibration sample
Procedure: • 1. Preparation polymer mixture • 2. Preparation of film laminates • 3. Slitting of the moist laminates • 4. Coating of the moist laminates • 5. Drying at room temperature
Further, the film was analyzed for the content of paclitaxel. To this end, 5 circular samples with a size of 1 cm^2 were cut at random positions of the film and dissolved in Brij® L23-buffer/methanol (MeOH) for HPLC analysis with Hypersil ODS 150×4.6 mm as stationary phase and acetonitrile/phosphate buffer as mobile phase. The HPLC results are shown in FIG. 11 in comparison to a blank film sample and a calibration sample.

Compound: 5′ UGCGCAGAAUGAGAUGAGUUG 3′ (UGCGCAGAAUGAGAUGAGUUG; listed as RNA, chemistry not given here)
influence of the film on RNA stability ([1]; RNA applied on PVA 18-88 film, 20% denaturing PAA gel): no influence on the stability
storage stability of RNA on the dry film ([1]; dried samples on the film, 4 days at 4° C.): no influence on RNA stability

Compound: 5′-AUU UCG AGU UGG CUG UUG C-3′ (antisense AUUUCGAGUUGGCUGUUGC; RNA, 3' rUrU, backbone not given here) [BMP2 RNA, antisense strand of BMP2-siRNA 2]
RNA degradation after storage of the dry film [2]: no RNA degradation could be observed
stability of RNA after application to the film ([2]; PVA 4-88 film, various application conditions, compared with stock sample): no difference between the test sample and the stock sample; also recorded: not degraded by the film

stability of paclitaxel prepared in a film [3]: can be stably prepared in a film
Compound: CC(=O)O[C@H]1C(=O)[C@@]2(C)[C@H]([C@H](OC(=O)c3ccccc3)[C@]3(O)C[C@H](OC(=O)[C@H](O)[C@@H](NC(=O)c4ccccc4)c4ccccc4)C(C)=C1C3(C)C)[C@]1(OC(C)=O)CO[C@@H]1C[C@@H]2O [paclitaxel, (2α,4α,5β,7β,10β,13α)-4,10-Bis(acetyloxy)-13-{[(2R,3S)-3-(benzoylamino)-2-hydroxy-3-phenylpropanoyl]oxy}-1,7-dihydroxy-9-oxo-5,20-epoxytax-11-en-2-yl-benzoat]

Compound: labeled BMP2 RNA: SEQ ID NO:23 antisense BMP2 RNA labeled with the dye Atto633 attached to the 3′ end (antisense AUUUCGAGUUGGCUGUUGC; listed as RNA, chemistry not fully specified)
RNA degradation after storage of the dry film [2]: no RNA degradation could be observed

Reference: US20250367419A1, “DRUG DELIVERY SYSTEM COMPRISING AN AGENT EFFECTIVE IN THE TREATMENT OR PREVENTION OF AN ESOPHAGEAL DISEASE FOR THE APPLICATION TO ESOPHAGEAL MUCOUS MEMBRANES” (EsoCap AG, priority 2022, published 2025)
